In experiment [1] the target is T1, hCB2 (Homo sapiens, UniProt P34972).
T1 construct: purchased BioSignal
Kind of experiment: hCB2 GTPγS binding. In kind it is biochemical. Particulars: for EC50: read-out: EC50, hCB2, nM. (In general: GTPγS resists hydrolysis and so accumulates on activated G proteins.)

The target in experiment [2] is T1, hCB2. Description: hCB2 receptor binding (3H-CP55,940 displacement, membranes). Particulars: for IC50: hCB2 IC50 (nM).
In experiment [3] the target is T2, hCB2-Sf9 (Homo sapiens, UniProt P34972).
T2 construct: host or cells: Sf9 (inferred from the head 'hCB2-Sf9')
Description: Ki hCB2-Sf9 binding (compounds made in a plate). The note with it: Table 2, printed in the IC50 (nM) column; n = 2; measured from 2 compounds made in a plate.

pEC50, pIC50, pKi: −log10 of the molar value. Read-outs that look alike come from different tables or passages of the source.

T1 sequence (P34972 whole entry): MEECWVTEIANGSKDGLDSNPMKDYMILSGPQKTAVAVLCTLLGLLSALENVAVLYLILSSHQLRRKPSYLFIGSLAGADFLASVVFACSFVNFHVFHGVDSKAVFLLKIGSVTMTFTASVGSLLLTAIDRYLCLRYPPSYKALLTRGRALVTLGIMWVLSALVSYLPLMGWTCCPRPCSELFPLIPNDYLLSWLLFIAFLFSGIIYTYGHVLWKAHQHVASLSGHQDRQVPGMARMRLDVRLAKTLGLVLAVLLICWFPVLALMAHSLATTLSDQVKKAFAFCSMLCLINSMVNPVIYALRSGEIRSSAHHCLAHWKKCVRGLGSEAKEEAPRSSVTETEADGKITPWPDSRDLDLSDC
T2 sequence (P34972 whole entry): as above

For `CCOc1ccc(C(C)c2nc3cc(N(C)C(=O)NC(C)C)ccc3n2CC2CC2)cc1` (racemic) [Example 53, (rac)-N-[1-(Cyclopropylmethyl)-2-[1-(4-ethoxyphenyl)ethyl]1H-benzimidazol-5-yl]-N-methyl-N′-(1-methylethyl)-urea], in experiment [1], the pEC50 – broadly, −log10 of the EC50, conventionally taken in molar units – is 8.17 and the Emax (usually the greatest response seen or fitted, relative to the assay's reference) was determined as 46%. In addition, the IC50 (in general, the concentration that inhibits the measured activity by half) in experiment [2] was 36 nM.

Consider `CCOc1ccc(C(C)c2nc3cc(N(C)C(=O)NC(C)C)ccc3n2CC2CC2)cc1` (single isomer, unassigned; (+)) [Example 55, (+)-N-[1-(Cyclopropylmethyl)-2-[1-(4-ethoxyphenyl)ethyl]-1H-benzimidazol-5-yl]-N-methyl-N′-(1-methylethyl)-urea], for which, in experiment [2], the IC50 was 715 nM.

In experiment [1], `CCOc1ccc(C(C)c2nc3cc(N(C)C(=O)NC(C)C)ccc3n2CC2CC2)cc1` (single isomer, unassigned; (-)) [Example 54, (−)-N-[1-(Cyclopropylmethyl)-2-[1-(4-ethoxyphenyl)ethyl]-1H-benzimidazol-5-yl]-N-methyl-N′-(1-methylethyl)-urea] gave a pEC50 of 8.47 and an Emax of 66%. Further, the IC50 in experiment [2] worked out at 15.5 nM.

On to `CCOc1ccc(Cc2nc3cc(C(=O)N(CC)CC)ccc3n2CCC(=O)OC)cc1` [Example 5, Methyl 3-[5-[(diethylamino)carbonyl]-2-(4-ethoxybenzyl)-1H-benzimidazol-1-yl]propanoate], for which the negative-log EC50 (pEC50) in experiment [1] was 7.19. Moreover, the Emax in experiment [1] (read-out: % Emax, hCB2) stood at 53%. In addition, in experiment [2], the pKi (in general, the negative decadic logarithm of the Ki, by convention in mol/L) was 6.85.

In experiment [1], `CCOc1ccc(Cc2nc3cc(C(=O)N(CC)CC)ccc3n2CC2CC2)cn1` [Example 13, 1-(Cyclopropylmethyl)-2-[(6-ethoxy-3-pyridinyl)methyl]-N,N-diethyl-1H-benzimidazole-5-carboxamide] had a pEC50 of 7.01. Moreover, the Emax in experiment [1] (read-out: % Emax, hCB2) was determined as 93%. In experiment [2], this molecule gave a pKi of 6.88.

On to `CCOc1ccc(Cc2nc3cc(CN4CCOCC4)ccc3n2CC2CC2)cc1` [Example 24, 1-(Cyclopropylmethyl)-2-(4-ethoxybenzyl)-5-(4-morpholinylmethyl)-1H-benzimidazole], for which the pEC50 in experiment [1] was 7.09. In experiment [1] (read-out: % Emax, hCB2), the Emax came out at 62%. In experiment [2], this molecule showed a pKi of 6.75.

Take `CCOc1ccc(Cc2nc3cc(NC(=O)OC)ccc3n2CC2CC2)cc1` [Example 26, Methyl-1-(cyclopropylmethyl)-2-(4-ethoxybenzyl)-1H-benzimidazol-5-yl carbamate]: in experiment [1], the “% Emax, hCB2” value is 295(41%) and the EC50 – broadly, the concentration giving half of the maximal effect – was determined as 295 nM.

As for `C=CCNc1ccc2c(c1)nc(Cc1ccc(OCC)cc1)n2CC1CC1` [Example 33, N-Allyl-1-(cyclopropylmethyl)2-(4-ethoxybenzyl)-1H-benzimidazol-5-amine], the EC50 in experiment [1] (Table 1, GTPγS binding, human CB2 membranes) was 146 nM. Besides, the maximal effect (Emax) in experiment [1] (Table 1, GTPγS binding, maximal stimulated binding defined with 1 μM Win 55,212-2, read-out: % Emax, hCB2) came out at 54%. For the same molecule, the negative logarithm of the Ki (pKi) in experiment [2] (Table 1, human CB2 membranes, 3H-CP55,940, read-out: Ki(hCB2)) was 6.51.

On to `CCOc1ccc(Nc2nc3cc(C(=O)N(CC)CC)ccc3n2CCC(C)C)cc1` [Example 39, 2-(4-Ethoxyanilino)-N,N-diethyl-1-isopentyl-1H-benzimidazole-5-carboxamide], for which the negative logarithm of the EC50 (pEC50) in experiment [1] was 7.19. In experiment [1] (read-out: % Emax, hCB2), the Emax was 64%. This molecule also showed a pKi in experiment [2] of 7.01.

As to `CCOc1ccc(Cc2nc3cc(C(=O)N(CC)CC)ccc3n2Cc2ccsc2)cc1` [Example 40, 2-[(4-Ethoxyphenyl)methyl]-N,N-diethyl-1-(3-thienylmethyl)-1H-benzimidazole-5-carboxamide], in experiment [1], the pEC50 was 8.92 and the maximum response (Emax) was determined as 74%. In addition, the IC50 in experiment [2] was 2.8 nM.

Consider `CCOc1ccc(Cc2nc3cc(C(=O)N(CC)CC)ccc3n2C[C@@H]2CCCO2)cc1` [Example 42], for which, in experiment [1], the pEC50 was 8.30 and the Emax came to 76%. Besides, in experiment [2], the half-maximal inhibitory concentration (IC50) amounted to 23 nM.

In experiment [1], `CCOc1ccc(C(O)c2nc3cc(C(=O)N(CC)CC)ccc3n2CCC(C)C)cc1` (stereo not shown) [Example 46, 2-[(4-Ethoxyphenyl)hydroxymethyl]-N,N-diethyl-(3-methylbutyl)-1H-benzimidazole-5-carboxamide] showed a pEC50 of 7.16 and a maximum response (Emax) of 70%. The same molecule came in with an IC50 in experiment [2] of 100 nM.

For the molecule `CCOc1ccc(Cc2nc3cc(N(C)C(=O)CC(C)C)ccc3n2Cc2ccsc2)cc1` [Example 47, N-[2-[(4-Ethoxyphenyl)methyl]-1-(3-thienylmethyl)1H-benzimidazol-5-yl]-N,3-dimethyl-butanamide], in experiment [1], the negative logarithm of the EC50 (pEC50) is 8.85 and the Emax was found to be 70%. In experiment [2], this molecule had an IC50 of 3.3 nM.

Consider `CCOc1ccc(Cc2nc3cc(N(C)C(=O)CC(C)C)ccc3n2Cc2ccc(COC(C)=O)o2)cc1` [Example 49, N-[1-[[5-[(Acetyloxy)methyl]-2-furanyl]methyl]-2-[(4-ethoxyphenyl)methyl]-1H-benzimidazol-5-yl]-N,3-dimethyl-butanamide], for which, in experiment [1], the pEC50 is 8.17 and the Emax turned out to be 67%. The molecule also came in with an IC50 in experiment [2] of 32 nM.

In experiment [1], `CCOc1ccc(C(C)c2nc3cc(N(C)C(=O)CC(C)C)ccc3n2CC2CC2)cc1` (stereo not shown) [Example 52, N-[1-(Cyclopropylmethyl)-2-[1-(4-ethoxyphenyl)ethyl]-1H-benzimidazol-5-yl]-N,3-dimethyl-butanamide] came in with a maximal response (Emax) of 41%.

In experiment [1], `CCOc1ccc(C(C)c2nc3cc(N(C)C(=O)NC(C)C)ccc3n2CC2CCCCC2)cc1` (stereo not shown) [Example 56, N-[1-(Cyclohexylmethyl)-2-[1-(4-ethoxyphenyl)ethyl]-1H-benzimidazol-5-yl]-N-methyl-N′-(1-methylethyl)-urea] had a pEC50 of 8.82 and an Emax of 88%. The IC50 in experiment [2] amounted to 5.4 nM.

In experiment [1], `CCOc1ccc(Cc2nc3cc(C(=O)N(CC)CC)cnc3n2Cc2ccc([N+](=O)[O-])s2)cc1` [Example 57, 2-[(4-Ethoxyphenyl)methyl]-N,N-diethyl-3-[(5-nitro-2-thienyl)methyl]-3H-imidazo[4,5-b]pyridine-6-carboxamide] had a pEC50 of 8.55 and an Emax of 72%. In experiment [2], the IC50 was 9.5 nM.

`CCOc1ccc(Cc2nc3cc(N(C)C(=O)CC(C)C)cnc3n2CC2CC2)cc1` [Example 59, N-[3-(Cyclopropylmethyl)-2-[(4-ethoxyphenyl)methyl]-3H-imidazo[4,5-b]pyridin-6-yl]-N,3-dimethyl-butanamide]: in experiment [1], the pEC50 is 7.19 and the Emax was determined as 67%. In experiment [2], this molecule returned an IC50 of 328 nM.

Turning to `CCOc1ccc(Cc2nc3cc(N(C)C(=O)NC(C)C)cnc3n2CC2CC2)cc1` [Example 60, N-[3-(Cyclopropylmethyl)-2-[(4-ethoxyphenyl)methyl]-3H-imidazo[4,5-b]pyridin-6-yl]-N-methyl-N′-(1-methylethyl)-urea], the pIC50 (in general, −log10 of the IC50, conventionally taken in molar units) in experiment [2] (read-out: hCB2 IC50) is 6.01.

With `CCOc1ccc(Cc2nc3cc(N(C)S(=O)(=O)c4ccccc4)cnc3n2CC2CC2)cc1` [Example 61, N-[3-(Cyclopropylmethyl)-2-[(4-ethoxyphenyl)methyl]-3H-imidazo[4,5-b]pyridin-6-yl]-N-methyl-benzenesulfonamide], the Ki (usually the equilibrium dissociation constant of an inhibitor or competing ligand from its target) in experiment [3] came out at 11.4 nM.

The molecule `CCOc1ccc(Cc2nc3cc(N(C)S(=O)(=O)c4cccs4)cnc3n2CC2CC2)cc1` [Example 62, N-[3-(Cyclopropylmethyl)-2-[(4-ethoxyphenyl)methyl]-3H-imidazo[4,5-b]pyridin-6-yl]-N-methyl-2-thiophenesulfonamide] yielded a Ki in experiment [3] of 4.5 nM.

Values taken from patent US7030139B2, “Compounds” (AstraZeneca AB, priority 2001, dated 2006).
